Assay results from patent US12419305B2, “Antimicrobial compositions” (Firmenich SA, priority 2018, dated 2025).

How the values were obtained:
S. aureus ATCC 6538 = assay: BCT test (bacterial contact time), 60 s, log reduction / effect fraction; CI by Compusyn; assay type: cell-based, Staphylococcus aureus; settings: Staphylococcus aureus, ATCC6538, 1 min, 60 s, in 25% EtOH
Procedure, shortened: (§1)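 Perfume ingredients, alone or combined, in ethanol were mixed 1:1 with ~1×10^8 CFU/mL log-phase bacteria in TSB for the stated contact time. Survivors were estimated by serial dilution and OD600 growth at 37 °C; log reduction versus ethanol control. CI from effect fractions via Compusyn (<0.9 synergy, >1.0 antagonism).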

S. haemolyticus 114126 = assay: BCT test (bacterial contact time), 120 s, log reduction / effect fraction; CI by Compusyn; assay type: cell-based; settings: Staphylococcus haemolyticus, 114126, 2 min, contact 120 s, 25% EtOH
Protocol: S. haemolyticus: Suspensions of the S. haemolyticus 114126 strain, isolated from skin, were prepared as follows: Stock cultures (stored at −80° C.) were thawed and sub-cultured onto TSA-TW80 agar plate media, and incubated at 37° C. for 24 h to obtain single colonies. Single colonies of the primary cultures were streaked onto fresh TSA-TW80 plates and incubated at 37° C. for 24 h to prepare secondary cultures. Single colonies of secondary cultures were picked and used to inoculate 50 mL of BHI-TW80 broth. The inoculated broth was incubated at 37° C. at 180 rpm for 18 h. Aliquots (0.5 ml) of the 18 h culture were inoculated into 50 ml of fresh BHI-TW80 broth, and incubated at 37° C. at 180 rpm for approximately 3 hours. When the OD 600 nm value of the broth reached 1-2, cells were harvested by centrifugation at 5000 rpm for 10 min, and then resuspended in fresh BHI-TW80 broth at a concentration of 1-5×10^8 CFU/mL. This suspension was used as the bacterial suspension for the BCT test.
BCT Test: Test compositions at a range of concentrations (either combinations of more than one perfume ingredient, and comparative compositions comprising the single perfume ingredients) were prepared in ethanol. Five replicates of each test composition were added into 96-well microtiter plates (120 μl per well), with row B containing control compositions containing the ethanol solution alone. 120 μl of bacterial cell suspensions at a concentration of approximately 1×10^8 bacteria per mL (as prepared above) were added to each well of the microtiter plate. The bacterial suspensions were incubated with the test solutions for 45, 60, or 120 seconds. Following the incubation of the bacterial suspensions with the test solutions, serial dilutions of the bacterial suspensions were generated (three serial 1:10 dilutions, followed by 17 serial 1:2 dilutions), in multiwell microtiter plates.
Each plate was sealed and incubated at 37° C. under agitation (180 rpm). After incubation, the turbidity of the wells (OD600 nm) was determined using a Tecan microplate reader. Turbid wells were regarded as positive growth, due to the presence of viable cells. The total number of viable cells (log CFU) for each sample was calculated. And the log reduction for each test composition at the final concentration (dose) was calculated against the control sample of the ethanol solution.
Determination of Synergy via the Combination Index (CI): The CI was calculated using Compusyn software (ComboSyn, Inc., as created by Dr. Dorothy Chou in 2005), according to the manufacturer's instructions. The concentration of each test composition (combinations of more than one perfume ingredient, and comparative compositions comprising the single perfume ingredients used to generate the combination) and their corresponding effect fraction was entered, and the corresponding CI calculated.
When the calculated CI values were less than 0.9, the combination of perfume ingredients was regarded as having synergistic effect. When the calculated CI was between 1.0 a 0.9, the combination of perfume ingredients was regarded as having an additive effect. When the calculated CI was greater than 1.0, the combination of perfume ingredients was regarded as having an antagonistic effect.

E. coli ATCC 10536 = assay: BCT test (bacterial contact time), 45 s, log reduction / effect fraction; CI by Compusyn; assay type: cell-based, Escherichia coli
Procedure, shortened: as §1

[1] = test system: Pseudomonas aeruginosa ATCC 15442; assay: BCT test (bacterial contact time), 60 s, log reduction / effect fraction; CI by Compusyn; assay type: cell-based; settings: Pseudomonas aeruginosa, ATCC15442, 1 min, BCT 60 s, in 25% EtOH
Procedure, shortened: as §1

[2] = test system: Salmonella enterica ATCC 10708; assay: as above; assay type: cell-based; settings: Salmonella enterica, ATCC10708, 1 min, BCT 60 s, in 25% EtOH
Procedure, shortened: as §1

O=c1ccc2ccccc2o1 [Coumarine, 2H-chromen-2-one]
log reduction at 0.5 % strength (S. aureus ATCC 6538; dose 0.500 % w/v, read-out: Log reduction): -0.1 | log reduction at 0.75 % strength (S. aureus ATCC 6538; dose 0.750 % w/v, read-out: Log reduction): 0.4 | log reduction at 0.875 % strength (S. aureus ATCC 6538; dose 0.875 % w/v): 0.8 | log reduction at 1 % strength (S. aureus ATCC 6538; dose 1.000 % w/v, read-out: Log reduction): 2.1 | log reduction at 1.25 % strength (S. aureus ATCC 6538; dose 1.250 % w/v): 7 | log reduction at 0.5 % strength (S. haemolyticus 114126; dose 0.5% w/v): 0 | log reduction at 0.75 % strength (S. haemolyticus 114126; dose 0.75% w/v): 0.7 | log reduction at 1 % strength (S. haemolyticus 114126; dose 1.0% w/v): 1.7 | log reduction at 1.25 % strength (S. haemolyticus 114126; dose 1.25% w/v): 6.3 | log reduction at 1.5 % strength (S. haemolyticus 114126; dose 1.5% w/v): 7.5 | log reduction at 0.5 % strength (E. coli ATCC 10536; Escherichia coli, ATCC10536, 45 s, dose 0.500 % w/v, 45 s, in 20% EtOH): -0.1 | log reduction at 0.6 % strength (E. coli ATCC 10536; Escherichia coli, ATCC10536, 45 s, dose 0.600 % w/v, 45 s, in 20% EtOH, read-out: Log reduction): 0.2 | log reduction at 0.65 % strength (E. coli ATCC 10536; Escherichia coli, ATCC10536, 45 s, dose 0.650 % w/v, 45 s, in 20% EtOH): 0.5 | log reduction at 0.7 % strength (E. coli ATCC 10536; Escherichia coli, ATCC10536, 45 s, dose 0.700 % w/v, 45 s, in 20% EtOH): 2.8 | log reduction at 0.8 % strength (E. coli ATCC 10536; Escherichia coli, ATCC10536, 45 s, dose 0.800 % w/v, 45 s, in 20% EtOH): 7.3 | log reduction at 0.3 % strength ([1]; Dose 0.3 % w/v, read-out: Log reduction): 0.4 | log reduction at 0.35 % strength ([1]; Dose 0.35 % w/v): 0.4 | log reduction at 0.4 % strength ([1]; Dose 0.4 % w/v, read-out: Log reduction): 0.7 | log reduction at 0.45 % strength ([1]; Dose 0.45 % w/v, read-out: Log reduction): 1.2 | log reduction at 0.5 % strength ([1]; Dose 0.5 % w/v): 2.9 | log reduction at 0.3 % strength ([2]; Dose 0.300 % w/v): 0.2 | log reduction at 0.4 % strength ([2]; Dose 0.400 % w/v): 3 | log reduction at 0.45 % strength ([2]; Dose 0.450 % w/v): 5.1 | log reduction at 0.5 % strength ([2]; Dose 0.500 % w/v): 7.5 | log reduction at 0.6 % strength ([2]; Dose 0.600 % w/v): 7.5

CCCCCCC1CCC(=O)O1 (centres unmarked) [Decal]
log reduction at 0.08 % strength (S. aureus ATCC 6538; dose 0.080 % w/v): 2.4 | log reduction at 0.1 % strength (S. aureus ATCC 6538; dose 0.100 % w/v): 5 | log reduction at 0.12 % strength (S. aureus ATCC 6538; dose 0.120 % w/v): 6.6 | log reduction at 0.16 % strength (S. aureus ATCC 6538; dose 0.160 % w/v): 7.2 | log reduction at 0.2 % strength (S. aureus ATCC 6538; dose 0.200 % w/v, read-out: Log reduction): 7 | log reduction at 0.1 % strength (S. haemolyticus 114126; dose 0.1% w/v): 0.5 | log reduction at 0.125 % strength (S. haemolyticus 114126; dose 0.125% w/v): 0.7 | log reduction at 0.15 % strength (S. haemolyticus 114126; dose 0.15% w/v): 1.2 | log reduction at 0.175 % strength (S. haemolyticus 114126; dose 0.175% w/v, read-out: Log reduction): 3.2 | log reduction at 0.2 % strength (S. haemolyticus 114126; dose 0.2% w/v): 4.5 | log reduction at 0.05 % strength (E. coli ATCC 10536; Escherichia coli, ATCC10536, 45 s, dose 0.050 % w/v, 45 s, in 20% EtOH): 0.1 | log reduction at 0.05 % strength (E. coli ATCC 10536; Escherichia coli, ATCC10536, 45 s, dose 0.05% w/v, contact 45 s, 20% EtOH): 0 | log reduction at 0.06 % strength (E. coli ATCC 10536; Escherichia coli, ATCC10536, 45 s, dose 0.060 % w/v, 45 s, in 20% EtOH): 0.7 | log reduction at 0.06 % strength (E. coli ATCC 10536; Escherichia coli, ATCC10536, 45 s, dose 0.06% w/v, contact 45 s, 20% EtOH): 0.9 | log reduction at 0.07 % strength (E. coli ATCC 10536; Escherichia coli, ATCC10536, 45 s, dose 0.070 % w/v, 45 s, in 20% EtOH): 2.4 | log reduction at 0.07 % strength (E. coli ATCC 10536; Escherichia coli, ATCC10536, 45 s, dose 0.07% w/v, contact 45 s, 20% EtOH): 2.8 | log reduction at 0.08 % strength (E. coli ATCC 10536; Escherichia coli, ATCC10536, 45 s, dose 0.080 % w/v, 45 s, in 20% EtOH): 6.4 | log reduction at 0.08 % strength (E. coli ATCC 10536; Escherichia coli, ATCC10536, 45 s, dose 0.08% w/v, contact 45 s, 20% EtOH): 6.1 | log reduction at 0.09 % strength (E. coli ATCC 10536; Escherichia coli, ATCC10536, 45 s, dose 0.090 % w/v, 45 s, in 20% EtOH): 7.1 | log reduction at 0.09 % strength (E. coli ATCC 10536; Escherichia coli, ATCC10536, 45 s, dose 0.09% w/v, contact 45 s, 20% EtOH): 7.3 | Log reduction (E. coli ATCC 10536; dose 0.050 % w/v, 45 s, in 20% EtOH): 0.1 | log reduction at 0.05 % strength ([1]; Dose 0.05 % w/v): 1.3 | log reduction at 0.055 % strength ([1]; Dose 0.055 % w/v): 2.7 | log reduction at 0.06 % strength ([1]; Dose 0.06 % w/v): 2.8 | log reduction at 0.065 % strength ([1]; Dose 0.065 % w/v): 4.7 | log reduction at 0.07 % strength ([1]; Dose 0.07 % w/v): 5.2 | log reduction at 0.04 % strength ([2]; Dose 0.04 % w/v): 0.3 | log reduction at 0.05 % strength ([2]; Dose 0.05 % w/v, read-out: Log reduction): 0.7 | log reduction at 0.06 % strength ([2]; Dose 0.06 % w/v): 1.3 | log reduction at 0.07 % strength ([2]; Dose 0.07 % w/v): 2.2 | log reduction at 0.08 % strength ([2]; Dose 0.080 % w/v): 5.8
